Results reported in US11179372B2, “Isoxazoline solution containing vitamin E for use with sanitized drinking water” (Intervet Inc., priority 2015, dated 2021).

Key:
[1] = Tolerance and plasma concentrations of Fluralaner in laying hens (Example 2); assay type: in vivo, chickens
Experimental: No vitamin E was present in the concentrated Fluralaner solution used to prepare the medicated drinking water.
The effectivity of an oral dosing regimen of Fluralaner was tested by administering medicated drinking water (via gavage) to laying hens, in 2 repeated doses of 0.25, 0.5 or 1.0 mg/kg body weight, administered 7 days apart, and challenging them with infestation by Northern fowl mites, via source birds and natural infestation. The birds were kept in separate pens, at 11 birds per pen.

[2] = Prevention of degradation by oxidizing sanitizer (hypochlorite) in medicated drinking water; assay type: physicochemical
Experimental: The Fluralaner level was determined using UHPLC. The alpha-tocopherol used was alpha-tocopherol EP (Fluka).
To prepare the test samples, the required amounts of Transcutol and Tween were measured, combined in a beaker at room temperature, and mixed magnetically. Next, when no protector was added, the required amount of Fluralaner was weighed, added, and mixed until complete dissolution, which usually required about 10 minutes, at 70% speed. […] The complete dissolution was verified visually. Next the density of the resulting solution was checked with a Densimeter, at 20° C.
To test the capacity of the different protectors to prevent degradation of Fluralaner in medicated drinking water by an oxidising sanitizer, samples of the pharmaceutical composition as prepared above were diluted to different concentrations, and incubated with different amounts of hypochlorite. Concentrations of Fluralaner in medicated drinking water used were: 1, 5, and 10 μg/ml.
The hypochlorite used was from a 13% sodium hypochlorite solution (Acros Organics), which was prepared into samples with a concentration of hypochlorite of: 0, 0.5, 2, 5, or 10 ppm, wherein 1 ppm equals 20 μM. Samples without hypochlorite served as positive controls. While the dilutions of hypochlorite were made in purified water, one additional sample at 5 ppm hypochlorite was prepared in standard tap water (Angers, France). Control samples were tested at day zero, all others were tested after an incubation for 7 days at 40° C./75% RH.
The concentration of protector in the test sample was dependent of the dilution factor of the concentrated Fluralaner composition applied: 1:10,000, 1:2000, or 1:1000, respectively.

[3] = Variation of concentration of vitamin E, Fluralaner in 5 ppm hypochlorite; assay type: physicochemical; settings: used at 1:10.000; for Reduction t = 0 to t = 7 in %: 5 ppm ClO-, 40° C./75% RH
Experimental: While in Example 4.3 alpha-tocopherol was used in the pharmaceutical composition at 8.2% w/w, it was now tested at 80% of that value, namely at 6.6% w/w. Pharmaceutical compositions according to the invention were prepared, containing either 8.2 or 6.6% w/w alpha-tocopherol. Also one base composition was prepared without protector. These were diluted 1:10.000 to prepare medicated drinking waters with 1 μg/ml Fluralaner. Next hypochlorite was added to 5 ppm, and 20 ml samples were filled-out in 50 ml glass vials, sealed with a rubber stopper, and stored for 7 days at 40° C./75% RH. The amount of Fluralaner of the three samples was measured at t=0 and at t=7 days using UHPLC. The concentration of the vitamin E in the final test sample was 1:10,000 of 6.6 or 8.2% w/w.

[4] = Conc. Fluralaner 1 μg/ml, hypochlorite 0 ppm, T = 0
[5] = Conc. Fluralaner 1 μg/ml, hypochlorite 0 ppm, T = 7 d at 40° C./75% RH
[6] = Conc. Fluralaner 1 μg/ml, hypochlorite 0.5 ppm, T = 7 d at 40° C./75% RH
[7] = Conc. Fluralaner 1 μg/ml, hypochlorite 2 ppm, T = 7 d at 40° C./75% RH
[8] = Conc. Fluralaner 1 μg/ml, hypochlorite 5 ppm (tapw.), T = 7 d at 40° C./75% RH
[9] = Conc. Fluralaner 1 μg/ml, hypochlorite 5 ppm, T = 7 d at 40° C./75% RH
[10] = Conc. Fluralaner 1 μg/ml, hypochlorite 10 ppm, T = 7 d at 40° C./75% RH
[11] = Conc. Fluralaner 5 μg/ml, hypochlorite 0 ppm, T = 0
[12] = Conc. Fluralaner 5 μg/ml, hypochlorite 0 ppm, T = 7 d at 40° C./75% RH
[13] = Conc. Fluralaner 5 μg/ml, hypochlorite 0.5 ppm, T = 7 d at 40° C./75% RH
[14] = Conc. Fluralaner 5 μg/ml, hypochlorite 2 ppm, T = 7 d at 40° C./75% RH
[15] = Conc. Fluralaner 5 μg/ml, hypochlorite 5 ppm (tapw.), T = 7 d at 40° C./75% RH
[16] = Conc. Fluralaner 5 μg/ml, hypochlorite 5 ppm, T = 7 d at 40° C./75% RH
[17] = Conc. Fluralaner 5 μg/ml, hypochlorite 10 ppm, T = 7 d at 40° C./75% RH
[18] = Conc. Fluralaner 10 μg/ml, hypochlorite 0 ppm, T = 0
[19] = Conc. Fluralaner 10 μg/ml, hypochlorite 0 ppm, T = 7 d at 40° C./75% RH
[20] = Conc. Fluralaner 10 μg/ml, hypochlorite 0.5 ppm, T = 7 d at 40° C./75% RH
[21] = Conc. Fluralaner 10 μg/ml, hypochlorite 2 ppm, T = 7 d at 40° C./75% RH
[22] = Conc. Fluralaner 10 μg/ml, hypochlorite 5 ppm (tapw.), T = 7 d at 40° C./75% RH
[23] = Conc. Fluralaner 10 μg/ml, hypochlorite 5 ppm, T = 7 d at 40° C./75% RH
[24] = Conc. Fluralaner 10 μg/ml, hypochlorite 10 ppm, T = 7 d at 40° C./75% RH
[25] = Vitamin E 0 % w/w in pharm. comp.
[26] = Vitamin E 6.6 % w/w in pharm. comp.
[27] = Vitamin E 8.2 % w/w in pharm. comp.

SMILES: Cc1cc(C2=NOC(c3cc(Cl)cc(Cl)c3)(C(F)(F)F)C2)ccc1C(=O)NCC(=O)NCC(F)(F)F (centres unmarked) [Fluralaner]
- Tolerance in the hens ([1]; 2 single doses of 0.25, 0.5, or 1 mg/kg BW, 7 days apart, oral): well tolerated
- Concentrations of Fluralaner in the birds' plasma ([1]; doses 0.25, 0.5, 1.0 mg/kg BW twice): increased proportionally to the dose administered
- Fluralaner content in medicated drinking water; alpha-tocopherol as protector [2, 4]: 0.91 µg/mL
- Fluralaner content in medicated drinking water; no protector [2, 4]: 0.93 µg/mL
- Fluralaner content in medicated drinking water; alpha-tocopherol as protector [2, 5]: 0.89 µg/mL
- Fluralaner content in medicated drinking water; no protector [2, 5]: 0.92 µg/mL
- Fluralaner content in medicated drinking water; alpha-tocopherol as protector [2, 6]: 0.91 µg/mL
- Fluralaner content in medicated drinking water; no protector [2, 6]: 0.91 µg/mL
- Fluralaner content in medicated drinking water; alpha-tocopherol as protector [2, 7]: 0.92 µg/mL
- Fluralaner content in medicated drinking water; no protector [2, 7]: 0.91 µg/mL
- Fluralaner content in medicated drinking water; alpha-tocopherol as protector [2, 8]: 0.86 µg/mL
- Fluralaner content in medicated drinking water; no protector [2, 8]: 0.13 µg/mL
- Fluralaner content in medicated drinking water; alpha-tocopherol as protector [2, 9]: 0.89 µg/mL
- Fluralaner content in medicated drinking water; no protector [2, 9]: 0.29 µg/mL
- Fluralaner content in medicated drinking water; alpha-tocopherol as protector [2, 10]: 0.05 µg/mL
- Fluralaner content in medicated drinking water; no protector [2, 10]: <LoQ
- Fluralaner content in medicated drinking water; alpha-tocopherol as protector [2, 11]: 5.52 µg/mL
- Fluralaner content in medicated drinking water; no protector [2, 11]: 5.50 µg/mL
- Fluralaner content in medicated drinking water; alpha-tocopherol as protector [2, 12]: 5.45 µg/mL
- Fluralaner content in medicated drinking water; no protector [2, 12]: 5.51 µg/mL
- Fluralaner content in medicated drinking water; alpha-tocopherol as protector [2, 13]: 5.52 µg/mL
- Fluralaner content in medicated drinking water; no protector [2, 13]: 5.52 µg/mL
- Fluralaner content in medicated drinking water; alpha-tocopherol as protector [2, 14]: 5.52 µg/mL
- Fluralaner content in medicated drinking water; no protector [2, 14]: 5.50 µg/mL
- Fluralaner content in medicated drinking water; alpha-tocopherol as protector [2, 15]: 5.42 µg/mL
- Fluralaner content in medicated drinking water; no protector [2, 15]: 4.43 µg/mL
- Fluralaner content in medicated drinking water; alpha-tocopherol as protector [2, 16]: 5.49 µg/mL
- Fluralaner content in medicated drinking water; no protector [2, 16]: 5.31 µg/mL
- Fluralaner content in medicated drinking water; alpha-tocopherol as protector [2, 17]: 5.56 µg/mL
- Fluralaner content in medicated drinking water; no protector [2, 17]: 1.54 µg/mL
- Fluralaner content in medicated drinking water; alpha-tocopherol as protector [2, 18]: 10.14 µg/mL
- Fluralaner content in medicated drinking water; no protector [2, 18]: 10.10 µg/mL
- Fluralaner content in medicated drinking water; alpha-tocopherol as protector [2, 19]: 10.01 µg/mL
- Fluralaner content in medicated drinking water; no protector [2, 19]: 10.07 µg/mL
- Fluralaner content in medicated drinking water; alpha-tocopherol as protector [2, 20]: 10.10 µg/mL
- Fluralaner content in medicated drinking water; no protector [2, 20]: 10.03 µg/mL
- Fluralaner content in medicated drinking water; alpha-tocopherol as protector [2, 21]: 10.10 µg/mL
- Fluralaner content in medicated drinking water; no protector [2, 21]: 10.03 µg/mL
- Fluralaner content in medicated drinking water; alpha-tocopherol as protector [2, 22]: 9.94 µg/mL
- Fluralaner content in medicated drinking water; no protector [2, 22]: 8.69 µg/mL
- Fluralaner content in medicated drinking water; alpha-tocopherol as protector [2, 23]: 9.99 µg/mL
- Fluralaner content in medicated drinking water; no protector [2, 23]: 9.97 µg/mL
- Fluralaner content in medicated drinking water; alpha-tocopherol as protector [2, 24]: 10.05 µg/mL
- Fluralaner content in medicated drinking water; no protector [2, 24]: 5.05 µg/mL
- Fluralaner conc. after incubation in 5 ppm ClO- at 40° C./75% RH, for t = 0 d [3, 25]: 0.80 µg/mL
- Fluralaner conc. after incubation in 5 ppm ClO- at 40° C./75% RH, for t = 7 d [3, 25]: 0.15 µg/mL
- Reduction t = 0 to t = 7 in % [3, 25]: 81%
- Fluralaner conc. after incubation in 5 ppm ClO- at 40° C./75% RH, for t = 0 d [3, 26]: 0.91 µg/mL
- Fluralaner conc. after incubation in 5 ppm ClO- at 40° C./75% RH, for t = 7 d [3, 26]: 0.49 µg/mL
- Reduction t = 0 to t = 7 in % [3, 26]: 46%
- Fluralaner conc. after incubation in 5 ppm ClO- at 40° C./75% RH, for t = 0 d [3, 27]: 0.90 µg/mL
- Fluralaner conc. after incubation in 5 ppm ClO- at 40° C./75% RH, for t = 7 d [3, 27]: 0.49 µg/mL
- Reduction t = 0 to t = 7 in % [3, 27]: 46%
